Assay results from ChEMBL document CHEMBL1201862, “PubChem BioAssay data set” (2004).
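Dose response: 5 concentrations. Exposure: 48 h. Format: 96-well plates. Endpoint: linear interpolation; highest concentration if not reached. GI50 = concentration required for 50% inhibition of growth.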 Active and inactive are the calls of the source. Cut-off read from the data, not from the text of the source: active = GI50 up to about 1.1 µM and inactive = higher.

Legend:
Assay in all cases: growth of human tumour cells (NCI), 48 h
[1] = test system: SK-OV-3
[2] = test system: A549
[3] = test system: SK-MEL-5
[4] = test system: ACHN
[5] = test system: UACC-62
[6] = test system: M14
[7] = test system: SW-620
[8] = test system: Malme-3M
[9] = test system: SR
[10] = test system: MOLT-4
[11] = test system: OVCAR-3
[12] = test system: OVCAR-8
[13] = test system: SK-MEL-2
[14] = test system: RXF 393
[15] = test system: OVCAR-5
[16] = test system: OVCAR-4
[17] = test system: T47D
[18] = test system: MDA-MB-435
[19] = test system: PC-3

Measured: GI50

CCNC(=O)C#CC(=O)NCC
inactive: [1] > 100 µM | [2] > 60.5 µM | [3] > 100 µM | [4] > 100 µM | [5] > 100 µM | [6] > 100 µM | [7] > 48 µM | [8] > 10 µM | [9] > 41.9 µM | [10] > 100 µM | [11] > 100 µM | [12] > 100 µM | [13] > 100 µM | [14] > 10 µM | [15] > 100 µM | [16] > 100 µM

CC(=O)Oc1c(C)cc2c(c1C)C(C)CN2C(C)=O (stereo not given)
inactive: [1] > 100 µM | [2] > 100 µM | [3] > 100 µM | [4] > 100 µM | [5] > 100 µM | [17] > 100 µM | [18] > 100 µM | [19] > 100 µM | [6] > 100 µM | [7] > 100 µM | [10] > 100 µM | [11] > 100 µM | [12] > 100 µM | [13] > 100 µM | [14] > 100 µM | [15] > 100 µM | [16] > 100 µM

c1ccc2c(c1)c1c(n2CCOCCN2CCCCC2)CCCC1
inactive: [1] 18.7 µM | [2] 15.1 µM | [3] 8.43 µM | [4] 14.2 µM | [5] 15 µM | [17] 13.4 µM | [18] 12.8 µM | [19] 9.04 µM | [6] 12.8 µM | [7] 17.3 µM | [8] 13.1 µM | [9] 13.8 µM | [10] 10.5 µM | [11] 9.75 µM | [12] 14 µM | [13] 8.77 µM | [15] 12.3 µM | [16] 11.1 µM

CC1NOC(=O)C1/N=N/c1ccc(Cl)cc1Cl (stereo not given)
inactive: [1] 29.3 µM | [2] 23 µM | [3] 25.8 µM | [4] 21.4 µM | [5] 30.7 µM | [6] 21 µM | [7] 7.98 µM | [8] 25.5 µM | [9] 18.7 µM | [10] 19.6 µM | [11] 16.4 µM | [12] 31.6 µM | [13] 23.8 µM | [14] 20.7 µM | [15] 69.7 µM | [16] 21.6 µM

COC(=O)c1c/c(=N\NC(=O)CC(=O)Nc2ccc(C)cc2)c2ccccc2o1
inactive: [1] > 100 µM | [2] > 100 µM | [3] > 100 µM | [4] > 100 µM | [5] > 100 µM | [6] > 100 µM | [7] > 100 µM | [8] > 100 µM | [9] > 100 µM | [10] > 100 µM | [11] > 100 µM | [12] > 100 µM | [13] > 100 µM | [14] > 100 µM | [15] > 100 µM | [16] > 100 µM

CN(C)C1(C(=O)O)CC1
inactive: [2] > 100 µM | [3] > 100 µM | [4] > 100 µM | [17] > 100 µM | [18] > 100 µM | [19] > 100 µM | [6] > 100 µM | [7] > 100 µM | [8] > 100 µM | [9] > 100 µM | [10] > 100 µM | [11] > 100 µM | [12] > 100 µM | [14] > 100 µM | [15] > 100 µM | [16] > 100 µM

C[C@]12CCC(=O)C=C1CC[C@@H]1[C@@H]2CC[C@]2(C)C(=O)NC(=O)C[C@@H]12
inactive: [1] > 100 µM | [2] > 100 µM | [3] > 100 µM | [4] > 100 µM | [5] > 100 µM | [6] > 100 µM | [7] > 100 µM | [8] > 100 µM | [9] > 100 µM | [10] > 100 µM | [11] > 100 µM | [12] > 100 µM | [13] > 100 µM | [14] > 100 µM | [15] > 100 µM | [16] > 100 µM

Cc1ccc(C)c(NC(=O)c2cc(-c3ccc([N+](=O)[O-])cc3)nc(N)n2)c1
inactive: [1] > 100 µM | [2] > 100 µM | [3] > 100 µM | [4] > 100 µM | [5] > 100 µM | [6] > 100 µM | [7] > 100 µM | [8] > 100 µM | [9] > 100 µM | [10] > 100 µM | [11] > 100 µM | [12] > 100 µM | [13] > 100 µM | [14] > 100 µM | [15] > 100 µM | [16] > 100 µM

C/C(=N\NC(N)=O)C(CN1CCCCC1)C(c1ccccc1)c1c(O)c2ccccc2oc1=O (stereo not given)
inactive: [1] > 100 µM | [2] > 100 µM | [3] > 100 µM | [4] > 100 µM | [5] > 100 µM | [6] > 100 µM | [7] > 100 µM | [8] > 100 µM | [9] > 100 µM | [10] > 100 µM | [11] > 100 µM | [12] > 100 µM | [13] > 100 µM | [14] > 100 µM | [15] > 100 µM | [16] > 100 µM

CC(=O)OCC1OC(O[C@@H]2C[C@H]3C(C)(C)[C@H](OC(C)=O)CC[C@]3(C)[C@H]3CC[C@]4(C)C(=CC[C@H]4[C@@H](C)C[C@@H](O)[C@H](O)C(C)(C)O)[C@@]32C)C(O)C(O)C1O (stereo not given in full)
inactive: [1] 18.5 µM | [4] 16.7 µM | [5] 16.1 µM | [17] 16.7 µM | [18] 14.8 µM | [19] 16.9 µM | [6] 21.3 µM | [7] 17.9 µM | [8] 17.8 µM | [9] 16.3 µM | [10] 16.8 µM | [11] 15.4 µM | [12] 17.3 µM | [13] 17.4 µM | [15] 14.1 µM | [16] 16 µM

Clc1ccc(-n2nnc(C3=NCCCN3)c2-c2ccccc2)cc1
inactive: [1] > 100 µM | [2] > 100 µM | [3] 75.2 µM | [4] > 100 µM | [5] > 100 µM | [6] > 100 µM | [7] > 100 µM | [8] > 100 µM | [9] > 100 µM | [10] > 100 µM | [11] > 100 µM | [12] > 100 µM | [13] > 100 µM | [14] > 100 µM | [15] > 100 µM | [16] > 100 µM

Oc1ccc[n+](Cc2ccccc2)c1
inactive: [1] > 100 µM | [2] > 100 µM | [3] > 100 µM | [4] > 100 µM | [5] > 100 µM | [17] > 100 µM | [18] > 100 µM | [19] > 100 µM | [6] > 100 µM | [8] > 100 µM | [10] > 100 µM | [11] > 100 µM | [12] > 100 µM | [13] > 100 µM | [14] > 100 µM | [15] > 100 µM
